The source of these data is paper PMC10564737, “Structure-based design of a phosphotyrosine-masked covalent ligand targeting the E3 ligase SOCS2” (Nature Communications, 2023).

In this experiment the target is T1, SOCS2 (SBC2) (Homo sapiens, UniProt O14508).
T1 construct: SOCS2 (amino acids 32–198); His6 (N, cleaved yes); made in house; host or cells: E. coli BL21(DE3)
In words: Intact ESI-MS of recombinant protein, covalent modification. The format is biochemical. The method, then:
SBC2 protein (40 µM), SBC2 C111S, SBC4, SBC6, or CISH were incubated with an equimolar concentration of MN551 in 50 mM Tris, pH 8.0, 50 mM NaCl, 1 mM TCEP. At defined time points 20 µl samples were removed and the protein precipitated by the addition of 80 µl methanol. The precipitated protein was pelleted by centrifugation, washed with 500 µl methanol, and resuspended in an aqueous solution of 15% acetonitrile and 1% TFA. Samples were separated by HPLC on a C3 column using a 10–75% gradient of acetonitrile and analyzed using an Agilent 6130 quadrupole MS. Spectra were deconvoluted and integrated using Agilent LC/MSD ChemStation.

T1 sequence (O14508 32-198): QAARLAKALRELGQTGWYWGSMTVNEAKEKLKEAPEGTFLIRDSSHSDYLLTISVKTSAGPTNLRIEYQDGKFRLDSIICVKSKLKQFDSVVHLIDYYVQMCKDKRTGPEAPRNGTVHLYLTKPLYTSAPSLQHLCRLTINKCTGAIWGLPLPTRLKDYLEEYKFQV
T1 sequence (Q15369 17-112, further chain): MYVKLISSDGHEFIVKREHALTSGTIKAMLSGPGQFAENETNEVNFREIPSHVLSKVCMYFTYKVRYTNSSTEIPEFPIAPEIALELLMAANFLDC
T1 sequence (Q15370 1-104, further chain): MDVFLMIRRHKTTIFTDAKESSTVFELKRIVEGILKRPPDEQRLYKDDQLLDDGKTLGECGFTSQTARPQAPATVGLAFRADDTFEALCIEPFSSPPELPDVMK

With `O=C(CCl)Nc1cccc(CNC(=O)[C@H](Cc2ccc(OP(=O)(O)O)cc2)NC(=O)Cc2ccc(F)cc2)c1` [MN551], for the setting “SBC2 (40 µM) treated with MN551 (40 µM)”, the “covalent adduct observed by intact mass analysis” value was 1:1 covalent SOCS2:MN551 adduct and single covalent adduct. For the same compound, the “time to stoichiometric occupancy at Cys111” value (recombinant SOCS2, equimolar compound) was not above 2 h.
